Test results from patent US11034650B2, “Compounds useful for treating a Mannheimia haemolytica or Histophilus somni infection” (Intervet Inc., priority 2016, dated 2021).
Values after ≈ are worked out from the molar mass of the structure shown.

What was measured:
Assay type in all cases: cell-based
[1] = test system: Mannheimia haemolytica MH 6357 (M7/2, reference strain, cattle infection strain); assay: MIC, broth-microdilution (CLSI VET01-A4), strain MH 6357; details: Mannheimia haemolytica strain MH 6357, broth-microdilution; unit assumed
Outline: (§1)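 Test articles are arrayed as a twofold dilution range in microdilution trays. Wells are scored by naked eye, and the MIC is taken where turbidity first disappears.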

[2] = test system: Mannheimia haemolytica MH 6374 (ATCC 33396, reference strain); assay: MIC, broth-microdilution (CLSI VET01-A4), strain MH 6374; details: Mannheimia haemolytica strain MH 6374, broth-microdilution; unit assumed
Outline: as §1

[3] = test system: Mannheimia haemolytica MH 10720 (154, BRD field isolate); assay: MIC, broth-microdilution (CLSI VET01-A4), strain MH 10720; details: Mannheimia haemolytica strain MH 10720, broth-microdilution; unit assumed
Outline: as §1

[4] = test system: Mannheimia haemolytica MH 12587 (1071, BRD field isolate, macrolide-resistance: erm+, E+); assay: MIC, broth-microdilution (CLSI VET01-A4), strain MH 12587; details: Mannheimia haemolytica strain MH 12587, broth-microdilution; unit assumed
Outline: as §1

[5] = test system: Mannheimia haemolytica MH 13065 (XB0446-6003.9, BRD field isolate); assay: MIC, broth-microdilution (CLSI VET01-A4), strain MH 13065; details: Mannheimia haemolytica strain MH 13065, broth-microdilution; unit assumed
Outline: as §1

[6] = test system: Mannheimia haemolytica MH 13093 (XB0472-6014.1, BRD field isolate); assay: MIC, broth-microdilution (CLSI VET01-A4), strain MH 13093; details: Mannheimia haemolytica strain MH 13093, broth-microdilution; unit assumed
Outline: as §1

[7] = test system: Pasteurella multocida PM 6267 (P 2225 (L386), reference strain, mouse infection strain); assay: MIC, broth-microdilution (CLSI VET01-A4), strain PM 6267; details: Pasteurella multocida strain PM 6267, broth-microdilution; unit assumed
Outline: as §1

[8] = test system: Pasteurella multocida PM 6391 (ATCC 43137, reference strain); assay: MIC, broth-microdilution (CLSI VET01-A4), strain PM 6391; details: Pasteurella multocida strain PM 6391, broth-microdilution; unit assumed
Outline: as §1

[9] = test system: Pasteurella multocida PM 10775 (080130003051, BRD field isolate); assay: MIC, broth-microdilution (CLSI VET01-A4), strain PM 10775; details: Pasteurella multocida strain PM 10775, broth-microdilution; unit assumed
Outline: as §1

[10] = test system: Pasteurella multocida PM 12080 (IV102277-0093, BRD field isolate); assay: MIC, broth-microdilution (CLSI VET01-A4), strain PM 12080; details: Pasteurella multocida strain PM 12080, broth-microdilution; unit assumed
Outline: as §1

MIC PM 6267 [7] [µg/mL] | MIC PM 6391 [8] [µg/mL] | MIC PM 10775 [9] [µg/mL] | MIC PM 12080 [10] [µg/mL] | SMILES | MIC MH 6357 [1] [µg/mL] | MIC MH 6374 [2] [µg/mL] | MIC MH 10720 [3] [µg/mL] | MIC MH 12587 [4] [µg/mL] | MIC MH 13065 [5] [µg/mL] | MIC MH 13093 [6] [µg/mL]
12.5 (≈ 27.9 µM) | 0.4 (≈ 0.892 µM) | 3.1 (≈ 6.91 µM) | 1.6 (≈ 3.57 µM) | CON=C(C)[C@H](NC(=O)c1ccc(C#Cc2ccc(CN3CCCC3)cc2)cc1)C(=O)NO [Compound 384] | 6.3 (≈ 14 µM) | 12.5 (≈ 27.9 µM) | 3.1 (≈ 6.91 µM) | 1.6 (≈ 3.57 µM) | 6.3 (≈ 14 µM) | 6.3 (≈ 14 µM)
1.6 (≈ 3.26 µM) | ≤ 0.1 | 0.4 (≈ 0.815 µM) | ≤ 0.1 | CON=C(C)[C@H](NC(=O)c1ccc(C#Cc2ccc(CNCc3cccs3)cc2)cc1)C(=O)NO [Compound 392] | 0.4 (≈ 0.815 µM) | 0.4 (≈ 0.815 µM) | 0.4 (≈ 0.815 µM) | ≤ 0.1 | 0.4 (≈ 0.815 µM) | 0.4 (≈ 0.815 µM)
0.8 (≈ 1.42 µM) | 0.4 (≈ 0.708 µM) | ≤ 0.1 | 0.2 (≈ 0.354 µM) | COc1ccc(CNCc2ccc(C#Cc3ccc(C(=O)N[C@H](C(=O)NO)C(C)(C)S(C)(=O)=O)cc3)cn2)cc1 [Compound 352] | 0.8 (≈ 1.42 µM) | 0.8 (≈ 1.42 µM) | 0.2 (≈ 0.354 µM) | 3.1 (≈ 5.49 µM) | 1.6 (≈ 2.83 µM) | 1.6 (≈ 2.83 µM)
0.8 (≈ 1.62 µM) | 0.8 (≈ 1.62 µM) | ≤ 0.1 | 0.4 (≈ 0.809 µM) | CSC(C)(C)[C@H](NC(=O)c1ccc(C#Cc2ccc(CNCC(F)(F)F)nc2)cc1)C(=O)NO [Compound 345] | 0.8 (≈ 1.62 µM) | 1.6 (≈ 3.24 µM) | ≤ 0.1 | 1.6 (≈ 3.24 µM) | 0.8 (≈ 1.62 µM) | 1.6 (≈ 3.24 µM)
0.8 (≈ 1.65 µM) | ≤ 0.1 | 0.4 (≈ 0.825 µM) | 0.4 (≈ 0.825 µM) | CON=C(C)[C@H](NC(=O)c1ccc(C#Cc2ccc(CNCc3ccccc3)cc2)cc1)C(=O)NO [Compound 382] | 0.8 (≈ 1.65 µM) | 1.6 (≈ 3.3 µM) | 0.8 (≈ 1.65 µM) | 0.2 (≈ 0.413 µM) | 0.8 (≈ 1.65 µM) | 0.8 (≈ 1.65 µM)
1.6 (≈ 3.68 µM) | ≤ 0.1 | 0.4 (≈ 0.921 µM) | 0.2 (≈ 0.46 µM) | CON=C(C)[C@H](NC(=O)c1ccc(C#Cc2ccc(CNC3CC3)cc2)cc1)C(=O)NO [Compound 378] | 0.8 (≈ 1.84 µM) | 0.8 (≈ 1.84 µM) | 0.4 (≈ 0.921 µM) | 0.2 (≈ 0.46 µM) | 0.8 (≈ 1.84 µM) | 0.8 (≈ 1.84 µM)
25 (≈ 55.7 µM) | 0.2 (≈ 0.446 µM) | 0.8 (≈ 1.78 µM) | 0.4 (≈ 0.892 µM) | CON=C(C)[C@H](NC(=O)c1ccc(C#Cc2ccc(CNC3CCC3)cc2)cc1)C(=O)NO [Compound 385] | 3.1 (≈ 6.91 µM) | 6.3 (≈ 14 µM) | 1.6 (≈ 3.57 µM) | 1.6 (≈ 3.57 µM) | 3.1 (≈ 6.91 µM) | 6.3 (≈ 14 µM)
25 (≈ 57.4 µM) | ≤ 0.1 | 0.8 (≈ 1.84 µM) | 0.4 (≈ 0.919 µM) | CC(=O)[C@H](NC(=O)c1ccc(C#Cc2ccc(CN3CCOCC3)cc2)cc1)C(=O)NO [Compound 399] | 3.1 (≈ 7.12 µM) | 6.3 (≈ 14.5 µM) | 1.6 (≈ 3.67 µM) | 1.6 (≈ 3.67 µM) | 6.3 (≈ 14.5 µM) | 6.3 (≈ 14.5 µM)
≤ 0.1 | ≤ 0.1 | 0.2 (≈ 0.413 µM) | ≤ 0.1 | CC(C)(O)[C@H](NC(=O)c1ccc(C#Cc2ccc(CNCc3nccs3)s2)cc1)C(=O)NO [Compound 359] | 0.4 (≈ 0.825 µM) | 0.2 (≈ 0.413 µM) | ≤ 0.1 | 0.4 (≈ 0.825 µM) | 0.2 (≈ 0.413 µM) | 0.4 (≈ 0.825 µM)

Further lines, the compound ahead of its results:

SMILES | MIC PM 6267 [7] [µg/mL] | MIC PM 6391 [8] [µg/mL] | MIC PM 10775 [9] [µg/mL] | MIC PM 12080 [10] [µg/mL] | MIC MH 6357 [1] [µg/mL] | MIC MH 6374 [2] [µg/mL] | MIC MH 10720 [3] [µg/mL] | MIC MH 12587 [4] [µg/mL] | MIC MH 13065 [5] [µg/mL] | MIC MH 13093 [6] [µg/mL]
CSC(C)(C)[C@H](NC(=O)c1ccc(C#Cc2ccc(CNCC#N)nc2)cc1)C(=O)NO [Compound 342] | 1.6 (≈ 3.54 µM) | 1.6 (≈ 3.54 µM) | 0.2 (≈ 0.443 µM) | 0.8 (≈ 1.77 µM) | 1.6 (≈ 3.54 µM) | 3.1 (≈ 6.87 µM) | 0.4 (≈ 0.886 µM) | 6.3 (≈ 14 µM) | 3.1 (≈ 6.87 µM) | 3.1 (≈ 6.87 µM)
O=C(N[C@@H](CO)C(=O)NO)c1ccc(C#Cc2ccc(CN3CCCCC3)cc2)cc1 [Compound 156] | 0.8 (≈ 1.9 µM) | 1.6 (≈ 3.8 µM) | ≤ 0.1 | 1.6 (≈ 3.8 µM) | 6.3 (≈ 14.9 µM) | 6.3 (≈ 14.9 µM) | 1.6 (≈ 3.8 µM) | 12.5 (≈ 29.7 µM) | 12.5 (≈ 29.7 µM) | 12.5 (≈ 29.7 µM)
CSC(C)(C)[C@H](NC(=O)c1ccc(C#Cc2ccc(CNCc3ccnc(Cl)c3)cc2)cc1)C(=O)NO [Compound 248] | 0.4 (≈ 0.745 µM) | 0.8 (≈ 1.49 µM) | 0.2 (≈ 0.372 µM) | 0.8 (≈ 1.49 µM) | 1.6 (≈ 2.98 µM) | 1.6 (≈ 2.98 µM) | 0.4 (≈ 0.745 µM) | 1.6 (≈ 2.98 µM) | 1.6 (≈ 2.98 µM) | 1.6 (≈ 2.98 µM)
COCCNCc1ccc(C#Cc2ccc(C(=O)N[C@H](C(=O)NO)C(C)(C)SC)cc2)s1 [Compound 302] | 0.8 (≈ 1.68 µM) | 0.8 (≈ 1.68 µM) | ≤ 0.1 | 0.4 (≈ 0.841 µM) | 0.4 (≈ 0.841 µM) | 0.8 (≈ 1.68 µM) | ≤ 0.1 | 1.6 (≈ 3.36 µM) | 0.8 (≈ 1.68 µM) | 0.8 (≈ 1.68 µM)
CC(C)[C@H](NC(=O)c1ccc(C#Cc2ccc(CNCc3cccnc3)cc2)cc1)C(=O)NO [Compound 167] | ≤ 0.1 | 0.4 (≈ 0.876 µM) | ≤ 0.1 | 0.2 (≈ 0.438 µM) | 0.4 (≈ 0.876 µM) | 0.4 (≈ 0.876 µM) | ≤ 0.1 | 0.8 (≈ 1.75 µM) | 0.8 (≈ 1.75 µM) | 0.8 (≈ 1.75 µM)
CC(C)([C@H](NC(=O)c1ccc(C#Cc2ccc(CNC3CC3)s2)cc1)C(=O)NO)S(C)(=O)=O [C.311] | 0.4 (≈ 0.817 µM) | ≤ 0.1 | ≤ 0.1 | ≤ 0.1 | 0.2 (≈ 0.408 µM) | ≤ 0.1 | ≤ 0.1 | 0.4 (≈ 0.817 µM) | ≤ 0.1 | 0.4 (≈ 0.817 µM)
COCCN(C)Cc1ccc(C#Cc2ccc(C(=O)N[C@@H](CO)C(=O)NO)cc2)cc1 [Compound 154] | 0.2 (≈ 0.47 µM) | 1.6 (≈ 3.76 µM) | ≤ 0.1 | 0.8 (≈ 1.88 µM) | 3.1 (≈ 7.29 µM) | 12.5 (≈ 29.4 µM) | 1.6 (≈ 3.76 µM) | 12.5 (≈ 29.4 µM) | 6.3 (≈ 14.8 µM) | 6.3 (≈ 14.8 µM)
CC(C)[C@H](NC(=O)c1ccc(C#Cc2ccc(CNCc3ccnc(Cl)c3)cc2)cc1)C(=O)NO [Compound 168] | ≤ 0.1 | 0.4 (≈ 0.815 µM) | ≤ 0.1 | 0.2 (≈ 0.407 µM) | 0.4 (≈ 0.815 µM) | 0.8 (≈ 1.63 µM) | 0.2 (≈ 0.407 µM) | 1.6 (≈ 3.26 µM) | 0.8 (≈ 1.63 µM) | 0.8 (≈ 1.63 µM)
O=C(N[C@@H](CO)C(=O)NO)c1ccc(C#Cc2ccc(CN3CCCC3)cc2)cc1 [Compound 145] | 3.1 (≈ 7.61 µM) | 6.3 (≈ 15.5 µM) | 0.2 (≈ 0.491 µM) | 6.3 (≈ 15.5 µM) | 6.3 (≈ 15.5 µM) | 25 (≈ 61.4 µM) | 3.1 (≈ 7.61 µM) | 25 (≈ 61.4 µM) | 12.5 (≈ 30.7 µM) | 12.5 (≈ 30.7 µM)
COCCNCc1ccc(C#Cc2ccc(C(=O)N[C@H](C(=O)NO)C(C)(C)S(C)(=O)=O)cc2)cc1 [Compound 257] | ≤ 0.1 | 0.2 (≈ 0.399 µM) | ≤ 0.1 | ≤ 0.1 | 3.1 (≈ 6.18 µM) | 1.6 (≈ 3.19 µM) | 0.4 (≈ 0.797 µM) | 3.1 (≈ 6.18 µM) | 1.6 (≈ 3.19 µM) | 1.6 (≈ 3.19 µM)
Cc1cnc(CNCc2ccc(C#Cc3ccc(C(=O)N[C@H](C(=O)NO)C(C)(C)S(C)(=O)=O)cc3)s2)o1 [Compound 323] | 0.2 (≈ 0.367 µM) | ≤ 0.1 | ≤ 0.1 | ≤ 0.1 | 0.2 (≈ 0.367 µM) | 0.2 (≈ 0.367 µM) | ≤ 0.1 | 0.8 (≈ 1.47 µM) | 0.4 (≈ 0.734 µM) | 0.8 (≈ 1.47 µM)
Cc1cnc(CNCc2ccc(C#Cc3ccc(C(=O)N[C@H](C(=O)NO)C(C)(C)O)cc3)s2)o1 [Compound 299] | 0.4 (≈ 0.829 µM) | ≤ 0.1 | ≤ 0.1 | 0.4 (≈ 0.829 µM) | 0.2 (≈ 0.414 µM) | 0.4 (≈ 0.829 µM) | ≤ 0.1 | 0.8 (≈ 1.66 µM) | 0.4 (≈ 0.829 µM) | 0.4 (≈ 0.829 µM)
O=C(N[C@@H](CO)C(=O)NO)c1ccc(C#Cc2ccc(CNC3CCCCC3)cc2)cc1 [Compound 149] | 0.8 (≈ 1.84 µM) | 1.6 (≈ 3.67 µM) | ≤ 0.1 | 1.6 (≈ 3.67 µM) | 12.5 (≈ 28.7 µM) | 25 (≈ 57.4 µM) | 3.1 (≈ 7.12 µM) | 25 (≈ 57.4 µM) | 25 (≈ 57.4 µM) | 25 (≈ 57.4 µM)
